# How the values were obtained:
# [1] = tested on: insects of the genus Bemisia; experiment: In vitro (laboratory) evaluation of effectiveness against Bemisia; type: in vivo; conditions: dose 2 mL/L (recommended by the manufacturer), 24 hours after application
# Experimental: In the laboratory assay both products were diluted to 5 mL of the formulation in 1 L of distilled water, and they were applied against insects of the genus Bemisia. To compare the effectiveness of the formulation distilled water was also applied as an absolute control and bifenthrin ([1a,3a-(Z)]-(±)-(2methyl[1,1′-biphenyl]-3-il)methyl-3-(2-cloro-3,3,3-trifluorine-1-propenyl-2,2-dimethyl cyclopropanecarboxylate) was applied as a commercial control. The application of the formulation was performed in laboratory conditions using devices to keep the specimens under observation. The effectiveness evaluation was carried out 24 hours after the application.
# The experimental unit consisted of four devices that were kept at 26 (±2° C.). Three repetitions of each evaluation were performed.
# In Table VI, the effectiveness observed in insects of the genus Bemisia after 24 hours of observation with each of the treatments is detailed. The dose of the commercial control (Bifenthrin) was that recommended by the manufacturer.
# [2] = tested on: nematodes of the genus Meloidogyne; experiment: In vitro evaluation of effectiveness against Meloidogyne nematodes; type: in vivo; conditions: dilution 1:200, after 48 hours
# Experimental: The nematicide capacity of formulation 2 was evaluated; a satisfactory percentage after 48 hours was obtained.
# [3] = tested on: Diaphorina sp adults; experiment: Field evaluation of effectiveness against Diaphorina sp adults in Citrus sp. crop; type: in vivo; conditions: dose 5 mL/L
# Experimental: (§1) In accordance with the effectiveness percentages mentioned above, both of the developed products show a significant effectiveness to control insects belonging to the genus Bemisia. The evaluation was carried out four days after the application. The formulations were also applied to observe their effectiveness in the crop of Citrus sp. in controlling two pest species: Diaphorina sp. (adult and nymph) and mites of the genus Polyphagotarsonemus.
# (§2) Table III describes the effectiveness of the above mentioned treatments in controlling Diaphorina sp. nymphs.
# [4] = tested on: Diaphorina sp nymphs; experiment: Field evaluation of effectiveness against Diaphorina sp nymphs in Citrus sp. crop; type: in vivo; conditions: dose 5 mL/L
# Experimental: as §1, §2
# [5] = tested on: humans; conditions: toxic for humans; cited from earlier work
# [6] = tested on: mammals; conditions: toxic for mammals; cited from earlier work
# [7] = tested on: larvae of genus Plutella; experiment: Field evaluation of effectiveness against Plutella larvae in Brassica oleracea crop; type: in vivo; conditions: dose 100 mL/Ha, fourth day after application
# Experimental: With the Brassica oleracea crop assessments of the control of larvae of the Plutella genus was performed, the results of this assessment are shown in Table V. The assessment was carried out the fourth day after the application.
molecule,measurement,setting,value
"Cc1c(COC(=O)[C@@H]2[C@H](/C=C(\Cl)C(F)(F)F)C2(C)C)cccc1-c1ccccc1 (racemic) [Bifenthrin, [1a,3a-(Z)]-(±)-(2methyl[1,1′-biphenyl]-3-il)methyl-3-(2-cloro-3,3,3-trifluorine-1-propenyl-2,2-dimethyl cyclopropanecarboxylate]",Effectiveness %,[1],97.18%
CNC(=O)Oc1cccc2c1OC(C)(C)C2 [Carbofuran],Effectiveness %,[2],100%
CNC(=O)CSP(=S)(OC)OC [Dimethoate],Effectiveness %,[3],100%
same,Effectiveness %,[4],100%
C=C(C)[C@H]1Cc2c(ccc3c2O[C@@H]2COc4cc(OC)c(OC)cc4[C@@H]2C3=O)O1 [Rotenone],DL50,[5],132 mg/kg
C/C=C(/C)C(=O)O[C@H]1CC[C@@]2(C)[C@@H]3CC[C@H]4[C@]5(O)C[C@H](O)[C@@]6(O)[C@@H](CN7C[C@@H](C)CC[C@H]7[C@@]6(C)O)[C@]5(O)C[C@@]42O[C@]13O [cevadine],DL50,[6],13 mg/kg
COc1ccc(C(=O)O[C@H]2CC[C@@]3(C)[C@@H]4CC[C@H]5[C@]6(O)C[C@H](O)[C@@]7(O)[C@@H](CN8C[C@@H](C)CC[C@H]8[C@@]7(C)O)[C@]6(O)C[C@@]53O[C@]24O)cc1OC [veratridine],DL50,[6],13 mg/kg
Spinosad,Effectiveness %,[7],52.8%

# Reference: patent publication US9801388B2, “Method for a pesticide having an insecticide, acaricide and nematicide action based on isoquinoline alkaloids and flavonoids” (PROMOTORA TECNICA INDUSTRIAL, S.A. DE C.V., priority 2011, dated 2017)
